# Data as given in patent US9492468B2, “Methods and compositions for treatment of acute heart failure” (PERICOR THERAPEUTICS, INC., priority 2008, dated 2016).
# Structures can show the parent of a compound that is named as a salt.
# System: NT-ProBNP
# Assay: Plasma NT-proBNP (competitive ELISA), dose escalation study
# Type: in vivo, dog
# Method: Eight heart failure dogs described in Example 1 were used. Seven of 8 dogs underwent two studies, one with active drug GP-531 tartrate and one with vehicle (placebo) and 1 of 8 dogs underwent only one active drug GP-531 study. The order of active drug and placebo was randomized and performed about one week apart. In 6 of 8 dogs, after baseline hemodynamic, and ventriculographic measurements, vehicle was administered as a continuous intravenous infusion for one hour. At the end of one hour, the active drug GP-531 tartrate was administered in 3 escalating dose of continuous intravenous infusion with each dose maintained for one hour. At the end of the last drug dose, infusion was stopped and a washout period of one hour was instituted. The same infusion rates and times between doses were used when vehicle studies were performed. At the end of each hour, hemodynamic and angiographic measurements were made. Venous blood samples were obtained at baseline and at one hour after each dose. Blood samples (at least 10 mL) were centrifuged at 3000 rpm for 10 minutes and plasma withdrawn and placed in cryostorage tubes and stored upright at −20° C. for future use. In 2 of 8 dogs, active drug was administered as bolus followed by a constant infusion for 3 hours as noted below.
# Plasma biomarkers were measured in Groups I and II. Troponin I (TnI) was determined in plasma based on the principle of the double antibody sandwich enzyme-linked immunosorbent assay (ELISA) (Hirano, T., et al., Immunol Today 1990, 11:443-449) and n-terminal brain natriuretic peptide (NT-pro-BNP) based on competitive ELISA (Bonow, R. O. Circulation 1996, 93:1946-1950). Both biomarkers were assayed using commercially available assay kits. Kits for NT proBNP and TnI were purchased from ALPCO Diagnostics, Salem, N.H. Using standard curves and software, the concentration of each biomarker was expressed as ng/ml for TnI and fmol/ml for NT-proBNP.
SMILES,"Effect on plasma NT-Pro-BNP (Group I HF dogs, all doses (30, 100, 300 μg/kg/min), vs baseline)","Effect on plasma NT-proBNP (Group II HF dogs, 3, 10, 30 μg/kg/min, significance only at 30 μg/kg/min)","Plasma NT-ProBNP (Group I HF dogs n=3, 1 h washout after 30/100/300 μg/kg/min) [fmol/mL]","Plasma NT-ProBNP (Group I HF dogs n=3, iv 30 μg/kg/min, 1 h) [fmol/mL]","Plasma NT-ProBNP (Group I HF dogs n=3, iv 100 μg/kg/min, 1 h) [fmol/mL]","Plasma NT-ProBNP (Group I HF dogs n=3, iv 300 μg/kg/min, 1 h) [fmol/mL]","Plasma NT-ProBNP (Group II HF dogs n=3, 1 h washout after 3/10/30 μg/kg/min) [fmol/mL]","Plasma NT-ProBNP (Group II HF dogs n=3, iv 3 μg/kg/min, 1 h) [fmol/mL]","Plasma NT-ProBNP (Group II HF dogs n=3, iv 10 μg/kg/min, 1 h) [fmol/mL]","Plasma NT-ProBNP (Group II HF dogs n=3, iv 30 μg/kg/min, 1 h) [fmol/mL]"
NC(=O)c1ncn(C2OC(CNCc3ccccc3)C(O)C2O)c1N (stereo not shown) [GP-531 tartrate],decreased significantly,tended to decrease with escalating doses,–,–,–,–,–,–,–,–
"NC(=O)c1ncn(C2OC(CNCc3ccccc3)C(O)C2O)c1N [GP-531, 5-amino-1-β-D-(5-benzylamino-5-deoxy-1-β-D-ribofuranosyl)imidazole-4 carboxamide]",–,–,204 ± 5,128 ± 23,131 ± 8,121 ± 13,179 ± 6,225 ± 34,155 ± 1,123 ± 21
